Publication PMC8198181, “Evaluation of Substituted N-Phenylpiperazine Analogs as D3 vs. D2 Dopamine Receptor Subtype Selective Ligands” (Molecules, 2021)

Target: D3 dopamine receptor (Homo sapiens, UniProt P35462)
Experiment: Forskolin-dependent adenylyl cyclase inhibition assay (cAMP-Glo, HEK cells)
Format: cell-based
Set-up: expressed in transfected cells; host or cells: HEK293
Details: human D3, test compound at 10x Ki, normalized to quinpirole 10,000 nM
Experimental: Quinpirole was used as a reference prototypic full agonist and haloperidol was used as a reference prototypic antagonist.
The forskolin-dependent adenylyl cyclase inhibition assay was performed using a cAMP-Glo Assay kit (Promega). For this assay cAMP stimulates protein kinase A (PKA) activity, which leads to a decrease in ATP levels and a decrease in the luciferase-coupled production of light. This is a 96 well plate assay using HEK cells stably transfected to express the human D3 dopamine receptor (10,000 cells/well/0.1 mL complete media). After removing media and rinsing with phosphate buffered saline, cells were incubated with 20 μL of forskolin (6000 nM) and test compound or vehicle. […] After cells, test compound (or vehicle) and forskolin (or vehicle) were incubated for 15 min, cells were lysed using 20 μL lysis buffer (provided with the kit) and mixed for 15 min at room temperature. A cAMP Detection Solution (40 μL) was added to each well, gently mixed for 60 s and incubated at room temperature for 20 min. The Kinase-Glo Solution was added (40 μL) to terminate the PKA reaction. The reaction mixture was gently mixed for 60 s and then incubated at room temperature for 10 min. The remaining ATP was detected via a luciferase reaction. The plates were read using an Enspire Alpha 2390 Multilabel Reader/Luminometer. Haloperidol (200 nM) and quinpirole (10,000 nM) was used as a prototypic reference antagonist and full agonist, respectively.
Figure 3 Comparison of the Efficacy of Phenylthiophene Analogs for Adenylyl Cyclase Inhibition and β-Arrestin Binding at Human D3 Dopamine Receptors. […] Values were normalized to reference full agonist quinpirole (10,000 nM).

Sequence of D3 dopamine receptor (P35462 whole entry): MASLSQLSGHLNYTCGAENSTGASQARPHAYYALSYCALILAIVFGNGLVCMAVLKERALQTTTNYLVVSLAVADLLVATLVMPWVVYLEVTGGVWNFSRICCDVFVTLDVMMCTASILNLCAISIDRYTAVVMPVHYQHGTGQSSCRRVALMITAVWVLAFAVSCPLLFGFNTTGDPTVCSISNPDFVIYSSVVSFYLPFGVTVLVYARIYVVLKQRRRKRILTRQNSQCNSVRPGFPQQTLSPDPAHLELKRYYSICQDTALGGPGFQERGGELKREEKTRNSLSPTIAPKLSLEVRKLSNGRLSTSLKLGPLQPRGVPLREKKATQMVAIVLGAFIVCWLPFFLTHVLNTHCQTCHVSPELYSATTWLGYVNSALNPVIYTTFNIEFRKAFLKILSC

O=C(NCCCCN1CCN(c2ccccc2F)CC1)c1ccc(-c2ccsc2)cc1 [Compound 6a]
efficacy in adenylyl cyclase inhibition assay: weak partial agonists
